This is an account of results in patent US10246442B2, “4-Aminoquinazolin compounds as prolyl hydroxylase inhibitors” (JANSSEN PHARMACEUTICA NV, priority 2011, dated 2019).

Assay [1] has as its target PHD2181-417 (Homo sapiens (Human), UniProt Q9GZT9). The experiment in a line: PHD enzymatic assay ([14C]-succinic acid production). Conditions: purified PHD2181-417, HIF-1α peptide substrate, 30 min pre-incubation; average of results. In kind it is biochemical. The procedure:
Expression and Purification of PHD2181-417
The human PHD2 expression construct containing amino acids 181-417 of GenBank Accession ID NM_022051 was cloned into a pBAD vector (Invitrogen), incorporating both an N-terminal histidine tag and a Smt3-tag, both of which are cleaved by Ulp1. Protein production was achieved by expression in BL21 cells grown in Terrific Broth containing 100 μg/ml ampicillin. Cell cultures were inoculated at 37° C. and grown to an OD600 of 0.8. Cultures were induced with 0.1% arabinose and grown overnight at 20° C. with continuous shaking at 225 rpm. Cells were then harvested by centrifugation and stored at −80° C. Cell pellets were suspended in Buffer A (50 mM Tris-HCl pH 7.2, 100 mM NaCl, 100 mM L-arginine, 1 mM TCEP, 0.05% (w/v) NP-40, 50 mM imidazole) followed by the addition of lysozyme and benzonase. Cells were lysed by sonication and the lysate was cleared by centrifugation (15,000 rpm, 90 min, 4° C.). The protein was purified by nickel affinity chromatography using a HisTrap Crude FF column (GE Healthcare). Samples were eluted in Buffer A with a 50-200 mM imidazole gradient. Cleavage of the Smt tag with Ulp1 protease was achieved via overnight incubation with dialyzing against Buffer A. The PHD2181-417 sample was then passed over a second HisTrap Crude FF column (GE Healthcare) to remove uncleaved protein. The flow-through was then dialyzed into 50 mM MES pH 6.0, 1 mM TCEP, 5 mM NaCl for ion exchange chromatography on a HiTrap SP Cation Exchange column (GE Healthcare). The PHD2181-417 protein was eluted with a 0-0.2 M NaCl gradient. Fractions were pooled for further purification by size exclusion chromatography over a Superdex 75 Size Exclusion Column (GE Healthcare). Final protein was concentrated to 4 mg/ml and dialyzed in 10 mM PIPES pH 7.0, 100 mM NaCl, 0.5 mM TCEP.
(10 μM, California Peptide Research Inc., Napa, Calif.), and [5-^14C]-2-oxoglutaric acid (50 mCi/mmol, Moravek Chemicals, Brea, Calif.) in reaction buffer (40 mM Tris-HCl, pH 7.5, 0.4 mg/ml catalase, 0.5 mM DTT, 1 mM ascorbate) for 10 minutes. Compounds were pre-incubated for 30 min before starting the reaction (all test compounds were dissolved at 10 mM in 100% DMSO (w/v) and were tested with final compound concentrations at 100 μM in 1% DMSO (w/v)). The reaction was stopped by addition of 50 μl of 70 mM H3PO4 and 50 μl of 500 mM NaH2PO4, pH 3.2. Detection of [^14C]-succinic acid was achieved by separating from [5-^14C]-2-oxoglutaric acid by incubating the reaction mixture with 100 μl of 0.16 M DNP prepared in 30% perchloric acid. Next, 50 μl of unlabeled 20 mM 2-oxoglutaric acid/20 mM succinic acid, serving as carrier for the radioactivity, was added to the mixture, and was allowed to proceed for 30 minutes at room temperature. The reaction was then incubated with 50 μl of 1 M 2-oxoglutaric acid for 30 additional minutes at room temperature to precipitate the excess DNP. The reaction was then centrifuged at 2800×g for 10 minutes at room temperature to separate [^14C]-succinic acid in the supernatant from the precipitated [^14C]-dinitrophenylhydrazone. Fractions of the supernatant (400 μI) were counted using a beta counter (Beckman Coulter, Fullerton, Calif.). Inhibition of PHD2181-417 activity was measured as a decrease in succinic acid production. The IC50 values were estimated by fitting the data to a three-parameter logistic function using GraphPad Prism, version 4.02 (Graph Pad Software, San Diego, Calif.).

Assay [2] deals with Erythropoietin secretion, Hep-3B cells. The experiment in a line: Cellular assay: EPO secretion in Hep-3B cells. In kind it is cell-based. The following applies: Homo sapiens, Hep3B, 100 μM compound, 24 hours, percent of EPO secretion relative to assay control compound 7-[(4-Chloro-phenyl)-(5-methyl-isoxazol-3-ylamino)-methyl]-quinolin-8-ol, read-out: Cellular % EPO Stimulation. The procedure: Hep-3B cells (ATCC, Manassas, Va.) were plated in 96-well plates at 20,000 cells per well in 100 μl of DMEM containing 10% fetal bovine serum, 1% non-essential amino acids, 50 IU/mL of penicillin and 50 μg/mL of streptomycin (all cell culture reagents from Invitrogen, Carlsbad, Calif.). Twenty-four hours after plating, compounds were added and incubated for an additional 24 hours. All compounds were tested with final compound concentrations at 100 μM. Fifty microliters of the supernatant was then transferred to a human Hypoxia assay kit (Meso-Scale Discovery, Gaithersburg, Md.). Erythropoietin in the supernatant was detected according to the manufacturer's instructions as follows. EPO detection plates were blocked with 3% BSA in PBS overnight and 50 μl of the supernatant was incubated at room temperature in an orbital shaker for 2 h. Twenty-five microliters of 0.5 μg/ml anti-EPO detection antibody was added for 2 hours at room temperature in an orbital shaker. After 3 washes in PBS, 150 μl of 1× read buffer is added and the plate is then read on the MSD SECTOR instrument. Data was analyzed by determining the percent of EPO secretion in the presence of 100 μM compound relative to an assay control compound, 7-[(4-Chloro-phenyl)-(5-methyl-isoxazol-3-ylamino)-methyl]-quinolin-8-ol.

Chain of PHD2181-417 (Q9GZT9 181-417): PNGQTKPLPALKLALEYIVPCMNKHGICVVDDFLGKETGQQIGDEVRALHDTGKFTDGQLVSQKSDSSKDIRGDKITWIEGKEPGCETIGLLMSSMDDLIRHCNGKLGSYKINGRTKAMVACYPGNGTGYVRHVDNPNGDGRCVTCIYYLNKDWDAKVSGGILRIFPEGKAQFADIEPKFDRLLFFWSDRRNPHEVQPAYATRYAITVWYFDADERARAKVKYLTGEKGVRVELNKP

Consider `CN(C)c1nc(-n2cc(C(=O)O)cn2)nc2ccc(-c3ccccc3)cc12` [Example 41, 1-(4-(Dimethylamino)-6-phenylquinazolin-2-yl)-1H-pyrazole-4-carboxylic acid], for which the “Enzyme pIC50” value in assay [1] was 7.2. In addition, the activation at 100 µM in assay [2] was determined as 43%.

With `CCN(C)c1nc(-n2cc(C(=O)O)cn2)nc2ccc(-c3ccccc3)cc12` [Example 42, 1-(4-(Ethyl(methyl)amino)-6-phenylquinazolin-2-yl)-1H-pyrazole-4-carboxylic acid], the “Enzyme pIC50” value in assay [1] was found to be 7.3. The activation at 100 µM in assay [2] was determined as 56%.

For the compound `O=C(O)c1cnn(-c2nc(N3CCCCC3)c3cc(-c4ccccc4)ccc3n2)c1` [Example 45, 1-(6-Phenyl-4-(piperidin-1-yl)quinazolin-2-yl)-1H-pyrazole-4-carboxylic acid], the “Enzyme pIC50” value in assay [1] worked out at 7.2. The activation at 100 µM in assay [2] was found to be 8%.

Regarding `CCN(CC)c1nc(-n2cc(C(=O)O)cn2)nc2ccc(-c3ccccc3)cc12` [Example 46, 1-(4-(Diethylamino)-6-phenylquinazolin-2-yl)-1H-pyrazole-4-carboxylic acid], the “Enzyme pIC50” value in assay [1] is 7.4. For the same compound, the activation at 100 µM in assay [2] was 26%.

Take `O=C(O)c1cnn(-c2nc(N3CCSCC3)c3cc(-c4ccccc4)ccc3n2)c1` [Example 54, 1-(6-Phenyl-4-thiomorpholinoquinazolin-2-yl)-1H-pyrazole-4-carboxylic acid]: the “Enzyme pIC50” value in assay [1] turned out to be 6.8. Besides, in assay [2], the activation at 100 µM came out at 25%.

On to `CCN(CC)c1nc(-n2cc(C(=O)O)cn2)nc2ccc(Oc3ccc(Cl)cc3)cc12` [Example 60, 1-(6-(4-Chlorophenoxy)-4-(diethylamino)quinazolin-2-yl)-1H-pyrazole-4-carboxylic acid], for which the “Enzyme pIC50” value in assay [1] is on record as 7.3. Besides, in assay [2], the activation at 100 µM amounted to 22%.

Take `O=C(O)c1cnn(-c2nc(N3CCCC3)c3cc(Oc4ccc(Cl)cc4)ccc3n2)c1` [Example 61, 1-(6-(4-Chlorophenoxy)-4-(pyrrolidin-1-yl)quinazolin-2-yl)-1H-pyrazole-4-carboxylic acid]: in assay [1], the “Enzyme pIC50” value is listed as 7.3. Besides, in assay [2], the activation at 100 µM came to 96%.

Regarding `O=C(O)c1cnn(-c2nc(NC3CC3)c3cc(Oc4ccc(Cl)cc4)ccc3n2)c1` [Example 62, 1-(6-(4-Chlorophenoxy)-4-(cyclopropylamino)quinazolin-2-yl)-1H-pyrazole-4-carboxylic acid], the “Enzyme pIC50” value in assay [1] worked out at 7.0. Besides, the activation at 100 µM in assay [2] was found to be 32%.

For the compound `O=C(O)c1cnn(-c2nc(N3CCCCC3)c3cc(Oc4ccc(Cl)cc4)ccc3n2)c1` [Example 63, 1-(6-(4-Chlorophenoxy)-4-(piperidin-1-yl)quinazolin-2-yl)-1H-pyrazole-4-carboxylic acid], in assay [1], the “Enzyme pIC50” value worked out at 7.6. The activation at 100 µM in assay [2] was 39%.

Consider `N#CC1CCN(c2nc(-n3cc(C(=O)O)cn3)nc3ccc(Oc4ccc(Cl)cc4)cc23)CC1` [Example 65, 1-(6-(4-Chlorophenoxy)-4-(4-cyanopiperidin-1-yl)quinazolin-2-yl)-1H-pyrazole-4-carboxylic acid], for which, in assay [1], the “Enzyme pIC50” value is listed as 7.4. For the same compound, the activation at 100 µM in assay [2] amounted to 77%.

For the compound `O=C(O)c1cnn(-c2nc(NC3CCOCC3)c3cc(Oc4ccc(Cl)cc4)ccc3n2)c1` [Example 68, 1-(6-(4-Chlorophenoxy)-4-((tetrahydro-2H-pyran-4-yl)amino)quinazolin-2-yl)-1H-pyrazole-4-carboxylic acid], the “Enzyme pIC50” value in assay [1] is recorded as 6.9. Besides, the activation at 100 µM in assay [2] worked out at 40%.

In the case of `O=C(O)c1cnn(-c2nc(Nc3ccccc3)c3cc(Oc4ccc(Cl)cc4)ccc3n2)c1` [Example 69, 1-(6-(4-Chlorophenoxy)-4-(phenylamino)quinazolin-2-yl)-1H-pyrazole-4-carboxylic acid], the “Enzyme pIC50” value in assay [1] is listed as 7.7. Further, in assay [2], the activation at 100 µM is 23%.

As for `CC(=O)NC1CCN(c2nc(-n3cc(C(=O)O)cn3)nc3ccc(Oc4ccc(Cl)cc4)cc23)CC1` [Example 70, 1-(4-(4-Acetamidopiperidin-1-yl)-6-(4-chlorophenoxy)quinazolin-2-yl)-1H-pyrazole-4-carboxylic acid], the “Enzyme pIC50” value in assay [1] was 7.1. For the same compound, the activation at 100 µM in assay [2] was 16%.

As for `CN1CCCN(c2nc(-n3cc(C(=O)O)cn3)nc3ccc(Oc4ccc(Cl)cc4)cc23)CC1` [Example 71, 1-(6-(4-Chlorophenoxy)-4-(4-methyl-1,4-diazepan-1-yl)quinazolin-2-yl)-1H-pyrazole-4-carboxylic acid], in assay [1], the “Enzyme pIC50” value is on record as 6.7. Also, the activation at 100 µM in assay [2] amounted to 17%.

`O=C(O)c1cnn(-c2nc(N3CCCC3)c3cc(Oc4ccccc4)ccc3n2)c1` [Example 73, 1-(6-Phenoxy-4-(pyrrolidin-1-yl)quinazolin-2-yl)-1H-pyrazole-4-carboxylic acid]: in assay [1], the “Enzyme pIC50” value was found to be 7.2. The activation at 100 µM in assay [2] was 36%.

Consider `O=C(O)c1cnn(-c2nc(NC3CC3)c3cc(Oc4ccccc4)ccc3n2)c1` [Example 75, 1-(4-(Cyclopropylamino)-6-phenoxyquinazolin-2-yl)-1H-pyrazole-4-carboxylic acid], for which, in assay [1], the “Enzyme pIC50” value was determined as 6.8. Further, in assay [2], the activation at 100 µM came to 20%.

As to `CN(C)c1nc(-n2cc(C(=O)O)cn2)nc2cc(Oc3ccccc3)ccc12` [Example 77, 1-(4-(Dimethylamino)-7-phenoxyquinazolin-2-yl)-1H-pyrazole-4-carboxylic acid], in assay [1], the “Enzyme pIC50” value is on record as 7.4. The activation at 100 µM in assay [2] was 75%.

Consider `O=C(O)c1cnn(-c2nc(N3CCCCC3)c3ccc(Oc4ccccc4)cc3n2)c1` [Example 79, 1-(7-Phenoxy-4-(piperidin-1-yl)quinazolin-2-yl)-1H-pyrazole-4-carboxylic acid], for which the “Enzyme pIC50” value in assay [1] came to 7.0. Besides, in assay [2], the activation at 100 µM amounted to 38%.

As to `CCN(CC)c1nc(-n2cc(C(=O)O)cn2)nc2cc(Oc3ccccc3)ccc12` [Example 83, 1-(4-(Diethylamino)-7-phenoxyquinazolin-2-yl)-1H-pyrazole-4-carboxylic acid], in assay [1], the “Enzyme pIC50” value is reported as 7.7. Besides, the activation at 100 µM in assay [2] was 25%.

For `O=C(O)c1cnn(-c2nc(N3CCOCC3)c3cc(OC4CCCCC4)c(F)cc3n2)c1` [Example 100, 1-(7-Fluoro-6-(cyclohexyloxy)-4-morpholinoquinazolin-2-yl)-1H-pyrazole-4-carboxylic acid], the “Enzyme pIC50” value in assay [1] came out at 6.6. In addition, in assay [2], the activation at 100 µM worked out at 18%.
